In ChEMBL document CHEMBL1697723, “A predictive ligand-based Bayesian model for human drug-induced liver injury” (Drug Metab Dispos, 2010) one finds Hepatotoxicity data, which are given here for 30 compounds.

One data set concerns Hepatotoxicity. Description: Human drug-induced liver injury (DILI) modelling dataset from Ekins et al.
Conditions: not given
For the compound `CO[C@H]1C[C@H](O[C@H]2[C@H](C)[C@@H](O[C@@H]3O[C@H](C)C[C@H](N(C)C)[C@H]3OC(C)=O)[C@@H](C)C[C@@]3(CO3)C(=O)[C@H](C)[C@@H](OC(C)=O)[C@@H](C)[C@@H](C)OC(=O)[C@@H]2C)O[C@@H](C)[C@@H]1OC(C)=O` [TROLEANDOMYCIN], the Hepatotoxicity entry was “DILI positive (test set)”. On the same count and under the same terms, as for `N[C@@H]1[C@H]2CN(c3nc4c(cc3F)c(=O)c(C(=O)O)cn4-c3ccc(F)cc3F)C[C@@H]12` [TROVAFLOXACIN], the entry is “DILI positive (training set)”. The same measure, in the same setting: as for `C[C@H](CCC(=O)O)[C@H]1CC[C@H]2[C@@H]3[C@@H](O)C[C@@H]4C[C@H](O)CC[C@]4(C)[C@H]3CC[C@]12C` [URSODIOL], the entry is “DILI negative (training set)”; as for `CCCCC(=O)O` [VALERIC ACID], “DILI negative (test set)”; as for `CN[C@H](CC(C)C)C(=O)N[C@H]1C(=O)N[C@@H](CC(N)=O)C(=O)N[C@H]2C(=O)N[C@H]3C(=O)N[C@H](C(=O)N[C@H](C(=O)O)c4cc(O)cc(O)c4-c4cc3ccc4O)[C@H](O)c3ccc(c(Cl)c3)Oc3cc2cc(c3O[C@@H]2O[C@H](CO)[C@@H](O)[C@H](O)[C@H]2O[C@H]2C[C@](C)(N)[C@H](O)[C@H](C)O2)Oc2ccc(cc2Cl)[C@H]1O` [VANCOMYCIN], “DILI positive (training set)”. Still for that read-out and setting: with `Nc1ncnc2c1ncn2[C@@H]1O[C@H](CO)[C@@H](O)[C@@H]1O` [VIDARABINE] the entry was “DILI negative (training set)”; with `CC[C@]1(O)C[C@@H]2CN(CCc3c([nH]c4ccccc34)[C@@](C(=O)OC)(c3cc4c(cc3OC)N(C)[C@H]3[C@@](O)(C(=O)OC)[C@H](OC(C)=O)[C@]5(CC)C=CCN6CC[C@]43[C@@H]65)C2)C1.O=S(=O)(O)O` [VINBLASTINE SULFATE], “DILI negative (test set)”. With `CC[C@]1(O)C[C@H]2CN(CCc3c([nH]c4ccccc34)[C@@](C(=O)OC)(c3cc4c(cc3OC)N(C=O)[C@H]3[C@@](O)(C(=O)OC)[C@H](OC(C)=O)[C@]5(CC)C=CCN6CC[C@]43[C@@H]65)C2)C1.O=S(=O)(O)O` [VINCRISTINE SULFATE], the Hepatotoxicity result was “DILI positive (test set)”. Same read-out and setting: with `CCCCCCCCCCCCCCCC(=O)OC/C=C(C)/C=C/C=C(C)/C=C/C1=C(C)CCCC1(C)C` [VITAMIN A PALMITATE] the entry was “DILI positive (test set)”; with `CC(=O)CC(c1ccccc1)c1c(O)c2ccccc2oc1=O` (stereo not given) [WARFARIN], “DILI negative (training set)”; with `CCOC(=O)CN[C@@H](C(=O)N1CC[C@H]1C(=O)NCc1ccc(/C(N)=N\O)cc1)C1CCCCC1` [XIMELAGATRAN], “DILI positive (test set)”.

Take `COc1cc(C(=O)NS(=O)(=O)c2ccccc2C)ccc1Cc1cn(C)c2ccc(NC(=O)OC3CCCC3)cc12` [ZAFIRLUKAST]: the Hepatotoxicity result was “DILI positive (training set)”. The same measure, in the same setting: with `Cc1cn([C@H]2C[C@H](N=[N+]=[N-])[C@@H](CO)O2)c(=O)[nH]c1=O` [ZIDOVUDINE] the entry was “DILI positive (training set)”; with `CC(c1cc2ccccc2s1)N(O)C(N)=O` (stereo not given) [ZILEUTON], “DILI positive (training set)”. As to `Cc1ccc(-c2nc3ccc(C)cn3c2CC(=O)N(C)C)cc1` [ZOLPIDEM], the Hepatotoxicity entry is “DILI negative (test set)”. The same measure, in the same setting: with `Cc1cc(CC(=O)O)n(C)c1C(=O)c1ccc(Cl)cc1` [ZOMEPIRAC] the entry was “DILI negative (training set)”; with AURANOFIN, “DILI positive (test set)”; with AUROTHIOGLUCOSE, “DILI positive (test set)”. With AUROTHIOLAMATE, the Hepatotoxicity result is “DILI positive (test set)”. Same read-out and setting: as for BISMUTH SUBSALICYLATE, the entry is “DILI negative (test set)”; as for CADMIUM DICHLORIDE, “DILI positive (training set)”. Still for that read-out and setting: with CARBOPLATIN the entry was “DILI positive (test set)”; with CISPLATIN, “DILI positive (test set)”.

On to CYANOCOBALAMIN, for which the Hepatotoxicity entry is “DILI negative (training set)”. Same read-out and setting: with GALLIUM NITRATE HYDRATE the entry was “DILI negative (training set)”; with LACTOSE, ANHYDROUS, “DILI negative (test set)”. On the same count and under the same terms, with POTASSIUM DICHROMATE the entry was “DILI positive (training set)”.

Staying with this data set, now noted: Liver.
Take `NC(CO)(CO)CO` [TROMETHAMINE]: the Hepatotoxicity result is on record as “DILI negative (test set)”. Still for that read-out and setting: as for `Oc1ncc(N(CCCl)CCCl)c(O)n1` [URACIL MUSTARD], the entry is “DILI positive (test set)”; as for `Nc1ccn([C@H]2CC[C@@H](CO)O2)c(=O)n1` [ZALCITABINE], “DILI negative (training set)”.
